Test results as given in PubChem BioAssay (NCI).
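Where inhibition never reached the appropriate level, the endpoint shown equals the highest concentration tested. Otherwise, values were interpolated linearly from a five-concentration, 48-hour dose response in 96-well plates. GI50: concentration for 50% inhibition of growth. TGI denotes the concentration required for complete inhibition of growth.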

Columns and labels:
Assay in all cases: NCI-60 cell line screen, 48 h
NCI-H226 lung = system: NCI-H226 lung
NCI-H460 lung = system: NCI-H460 lung
OVCAR-3 ovarian = system: OVCAR-3 ovarian
SF-268 CNS = system: SF-268 CNS
SN12C renal = system: SN12C renal
UACC-257 melanoma = system: UACC-257 melanoma
UO-31 renal = system: UO-31 renal
DU-145 prostate = system: DU-145 prostate
MDA-MB-435 = system: MDA-MB-435

| SMILES | TGI (NCI-H226 lung) | TGI (NCI-H460 lung) | TGI (OVCAR-3 ovarian) | TGI (SF-268 CNS) | TGI (SN12C renal) | TGI (UACC-257 melanoma) | GI50 (UO-31 renal) | TGI (UO-31 renal) | GI50 (DU-145 prostate) | TGI (DU-145 prostate) | GI50 (MDA-MB-435) | TGI (MDA-MB-435) | GI50 (NCI-H226 lung) | GI50 (OVCAR-3 ovarian) | GI50 (SN12C renal) | GI50 (UACC-257 melanoma) | GI50 (SF-268 CNS) |
| --- | --- | --- | --- | --- | --- | --- | --- | --- | --- | --- | --- | --- | --- | --- | --- | --- | --- |
| CC1=C2C(=CC(C)(CO)C2O)C(=O)C(C)(O)C12CC2 (stereo unspecified) | 0.015 µM | 0.0046 µM | 0.019 µM | 0.0159 µM | 0.118 µM | 0.00867 µM | 0.0164 µM | 0.039 µM | – | – | – | – | – | – | – | – | – |
| O=[N+]([O-])c1ccc(OCCNc2cccc3ccccc23)cc1 | > 100 µM | > 100 µM | > 100 µM | > 100 µM | > 100 µM | > 100 µM | – | > 100 µM | – | – | – | – | – | – | – | – | – |
| O=[N+]([O-])c1ccc2c(c1)OCCOCCOc1ccc([N+](=O)[O-])cc1OCCOCCO2 | > 100 µM | > 100 µM | > 100 µM | > 100 µM | > 100 µM | > 100 µM | – | > 100 µM | – | – | – | – | – | – | – | – | – |
| CN1NC2=NCCN=C3NN(C)C(=NCCN=C1S2)S3 | > 100 µM | > 100 µM | – | > 100 µM | > 100 µM | > 100 µM | – | – | – | – | – | – | – | – | – | – | – |
| COC1=C(OC)C(=O)c2cc(SC)c(=O)c(SC)cc2C1=O | 28.4 µM | > 100 µM | 23.4 µM | 28.3 µM | 28.7 µM | 21.6 µM | – | 40.5 µM | – | – | – | – | – | – | – | – | – |
| COc1cccc2c(Nc3ccc(C(=O)NCCNCCO)cc3)cc(-c3ccccc3)nc12 | > 100 µM | – | > 100 µM | – | > 100 µM | > 100 µM | > 100 µM | > 100 µM | 58.7 µM | > 100 µM | 27.8 µM | 75.5 µM | 56.1 µM | 39.2 µM | 34.3 µM | 39 µM | – |
| COC(=O)C(=O)C(C(=O)C(=O)Nc1ccc([N+](=O)[O-])cc1[N+](=O)[O-])c1nc2ccc([N+](=O)[O-])cc2[nH]c1=O (stereo unspecified) | > 100 µM | > 100 µM | > 100 µM | > 100 µM | > 100 µM | > 100 µM | – | > 100 µM | – | – | – | – | – | – | – | – | – |
| CCCOP1(=O)C=C(C)C(Cl)=C(C)C1 (stereo unspecified) | 52.2 µM | > 100 µM | 70.3 µM | 45.2 µM | 58.6 µM | 45.7 µM | – | > 100 µM | – | – | – | – | – | – | – | – | – |
| CN(OC(=O)CC(=O)c1ccccc1)C(=O)Cc1ccccc1 | > 100 µM | > 100 µM | > 100 µM | > 100 µM | > 100 µM | > 100 µM | – | > 100 µM | – | – | – | – | – | – | – | – | – |
| O=C1C(c2ccc(Cl)cc2)=[N+]([O-])c2ccccc21 | 47 µM | 37.6 µM | 26.8 µM | 28.8 µM | 32.4 µM | 30.3 µM | – | > 100 µM | – | – | – | – | – | – | – | – | – |
| COC1CCC2C(=O)CCCC2O1 (stereo unspecified) | > 100 µM | > 100 µM | > 100 µM | > 100 µM | > 100 µM | > 100 µM | – | > 100 µM | – | – | – | – | – | – | – | – | – |
| O=NN(CCCl)C(=O)NCc1ccc[n+]([O-])c1 | > 100 µM | > 100 µM | > 100 µM | > 100 µM | > 100 µM | > 100 µM | – | – | – | – | – | – | – | – | – | – | – |
| Cc1ccc(C2=[N+]([O-])c3ccccc3C2=O)cc1 | > 100 µM | > 100 µM | 32.2 µM | > 75.1 µM | 37.8 µM | 33 µM | – | > 87.9 µM | – | – | – | – | – | – | – | – | – |
| CC(C)SC1SCC2C(=O)N(C)C3(CC3C)C(=O)OCC(NC(=O)c3nc4ccccc4cc3O)C(=O)NC(C)C(=O)N(C)C1C(=O)N(C)C1(CC1C)C(=O)OCC(NC(=O)c1nc3ccccc3cc1O)C(=O)NC(C)C(=O)N2C (stereo unspecified) | < 0.0001 µM | – | < 0.0001 µM | 0.00129 µM | – | < 0.0001 µM | – | < 0.0001 µM | – | > 100 µM | – | < 0.0001 µM | – | – | – | – | – |
| Cc1c2[nH]c3ccc(Br)cc3c2c(C)c2[nH]ccc(=O)c12 | 35.9 µM | 23.1 µM | 32.2 µM | 32.6 µM | 32.4 µM | 34.9 µM | – | 24.2 µM | – | – | – | – | – | – | – | – | – |
| Cc1ccc(C)c(-n2c(-c3ccc(Br)cc3)csc2=NC(=O)c2ccccc2F)c1 | > 100 µM | – | > 100 µM | > 100 µM | > 100 µM | > 100 µM | > 100 µM | > 100 µM | > 100 µM | > 100 µM | > 100 µM | > 100 µM | > 100 µM | > 100 µM | > 100 µM | > 100 µM | > 100 µM |
| CCCCCCC(O)C/C=C/CCCCCC/C(C(=O)OC)=C(/O)C(=O)OCC (stereo unspecified) | > 100 µM | > 100 µM | > 100 µM | > 100 µM | > 100 µM | > 100 µM | – | > 100 µM | – | – | – | – | – | – | – | – | – |
| Cc1ccc(C)c(NC(=O)CC2C(=O)Nc3ccccc3S2(=O)=O)c1 (stereo unspecified) | > 100 µM | > 100 µM | > 100 µM | > 100 µM | > 100 µM | > 100 µM | – | > 100 µM | – | – | – | – | – | – | – | – | – |
| CC(C)(C)C(=O)Nc1ccccc1Br | > 100 µM | > 100 µM | > 100 µM | – | > 100 µM | > 100 µM | – | > 100 µM | – | – | – | – | – | – | – | – | – |
